The values below come from ChEMBL document CHEMBL1147239, “New antioxidant C-glucosylxanthones from the stems of Arrabidaea samydoides” (J Nat Prod, 2003).

The test relates to Radical scavenging activity. The test can be described thus: Antioxidant activity assessed as DPPH radical scavenging activity after 30 mins. Type of test: functional. For orientation: The DPPH test is a chemical assay of radical scavenging.
Turning to `O=c1c2cc(O)c(O)cc2oc2cc(O)c([C@@H]3O[C@H](CO)[C@@H](O)[C@H](O)[C@H]3O)c(O)c12` [MANGIFERIN], the IC50 was 35 µM.
Under `O=C(O[C@@H]1[C@@H](O)[C@H](O)[C@@H](CO)O[C@H]1c1c(O)cc2oc3cc(O)c(O)cc3c(=O)c2c1O)c1ccc(O)cc1` [MURAXANTHONE] stands 30.7 µM.
For `O=C(O[C@@H]1[C@@H](O)[C@H](O)[C@@H](CO)O[C@H]1c1c(O)cc2oc3cc(O)c(O)cc3c(=O)c2c1O)c1ccccc1`, the IC50 was 32.7 µM.
Under `O=C(/C=C/c1ccc(O)c(O)c1)O[C@@H]1[C@@H](O)[C@H](O)[C@@H](CO)O[C@H]1c1c(O)cc2oc3cc(O)c(O)cc3c(=O)c2c1O` stands 17.8 µM.
For the molecule `C[C@@H]1O[C@@H](OC[C@H]2O[C@@H](Oc3c(-c4ccc(O)c(O)c4)oc4cc(O)cc(O)c4c3=O)[C@H](O)[C@@H](O)[C@@H]2O)[C@H](O)[C@H](O)[C@H]1O` [RUTIN], the IC50 was 12.3 µM.
With `O=C(/C=C/c1ccccc1)O[C@@H]1[C@@H](O)[C@H](O)[C@@H](CO)O[C@H]1c1c(O)cc2oc3cc(O)c(O)cc3c(=O)c2c1O` the figure was 31.4 µM.
Regarding `O=C(/C=C/c1ccc(O)cc1)O[C@@H]1[C@@H](O)[C@H](O)[C@@H](CO)O[C@H]1c1c(O)cc2oc3cc(O)c(O)cc3c(=O)c2c1O`, the IC50 turned out to be 25.4 µM.

What is called IC50 is the concentration that inhibits the measured activity by half.
